The test system of one series is MEF cells. As to the kind of experiment: Cell survival analysis (Annexin V/PI flow cytometry), MEF. In kind it is cell-based, mouse. The following applies: 20 μM carnosol. Here is the method: FIGS. 6A-6C: Carnosol protects UVB-induced cell death. Cells were exposed to UVB radiation with different dose of carnosol treatment. At indicated time point, cells were collected and Annexin V/PI apoptosis detection kit was used to detect cell apoptosis. (FIG. 6A) HaCaT cell survival rate with different concentrations (μM) of carnosol treatment at 12 h post UVB radiation. (FIG. 6B) Time dependent assay (h) in the presence or absence of carnosol treatment in HaCaT cells. (FIG. 6C) MEF cells treated with 20 μM carnosol at indicated time point (h). The error bars present the standard deviation of three sets of independent experiments. *p<0.05 versus control group; **p<0.05 versus corresponded UV group.
(§1) UVB was generated from a Bench XX-Series UV Lamp (UVP Inc.) equipped with two 15-watt UVB tubes (UVP Inc.). The intensity of UVB was calibrated by a UVP model UVX digital radiometer (UVP Inc.) after the lamps warmed up for 5 min. For irradiating cells, the dose rate for 8 mJ/cm^2 or 50 mJ/cm^2 of UVB radiation was 0.8 or 3.8 mW/s respectively. Medium was removed before exposing the cells to UVB. After UVB radiation, fresh medium was added to the culture plates with or without drugs, and the cells were continue incubating at 37° C. with 5% CO2 until further analysis. Carnosol was disovled in DMSO and was irradiated with 50 mJ/cm^2 of UVB radiation at a dose rate of 3.8 mW/s before subjecting to cells or structure analysis using Mass Spectrum.
Carnosol (Cayman) (FIG. 1) was added to cells at indicated concentration at 1 h before exposing the cells to UVB radiation. After radiation, cells were continuously incubated with or without carnosol in the medium until further analysis.
Total cell number of 1×10^5 was used for each analysis using flow cytometer. Fluorescein isothiocyanate (FITC) conjugated-annexin V (ANXS)/propidium iodide (PI) apoptosis detection kit (BD Biosciences) were used to stain the cells through the determination of the loss of membrane phospholipid […] and membrane integrity. Cell survival rate (R) was calculated as: R=[1×10^5−number of positive stained cells]/1×10^5. Briefly, the cells were harvested by 0.25% trypsin digestion, combined with the cells floating in the medium and washed twice with cold PBS. The cells were then suspended in ANXS binding buffer (10 mM Hepes/NaOH, pH 7.4, 140 mM NaCl and 2.5 mM CaCl2). The cell suspension was mixed with 5 μL ANXS-FITC and 5 μL PI. The cell mixture was incubated for […] in dark at room temperature and the ANXS/PI double-stained cells were analyzed using a FACSort Flow Cytometer (BD Science) equipped with CellQuest software (BD Science).

For a further series, the system named is normal skin cells. As to the kind of experiment: Cell proliferation with carnosol or its decomposed molecules (FIG. 11). In kind it is cell-based. Here is the method: FIG. 11. The effect of carnosol or its decomposed molecules on cell proliferation was determined.
as §1

In a further series the test system is NF-κB. In words: Electrophoretic mobility shift assay (EMSA), HaCaT nuclear extract. The class given is cell-based, Human. The following applies: 20 μM carnosol; for NF-κB activity induction (EMSA): UVB alone about 2.6 fold. The method, then:
FIGS. 7A-7F: Carnosol inhibited UVB-induced NF-κB activation. Cells were exposed to UVB radiation in the presence or absence of carnosol. Cells were lysed at indicated time point and protein levels were measured by western blot analysis. (FIG. 7A) Western blot for IκB protein level in HaCaT cells at 2, 4 h post UVB radiation at 1, 10 or 20 μM carnosol treatment. (FIG. 7B) Western blot analysis for IκB protein level in HaCaT cells at 6 h post UVB radiation in the presence or absence of carnosol. (FIG. 7C) Western blot analysis for IκB protein level in MEF cells at 6 h post UVB radiation in the presence or absence of carnosol. (FIG. 7D) Western blot for 5276 site phosphorylation of NF-κB in HaCaT cells at 6 h post UVB with indicated carnosol concentration. (FIG. 7E) EMSA assay for HaCaT cells at 2, 4, 6 h post UVB radiation in the presence or absence of carnosol (20 μM). (FIG. 7F) Statistical analysis of the EMSA assay using two to three sets of independent experiments. *p<0.05 versus control group, **p<0.05 versus UV group at indicated time point.
A 22-bp synthetic oligonucleotide (5′-[…]-3′) [SEQ ID NO:1] containing the specific NF-κB-binding site was annealed and labeled with γ-^32P-ATP using T4 polynucleotide kinase. A DNA-binding reaction mixture of total 20 μL containing poly(dI:dC), labeled probe, binding buffer (10 mM pH 8.0 Tris HCl, 150 mM KCl, 0.5 mM EDTA, 0.1% Triton-X 100, 12.5% Glycerol and 0.2 mM DTT) and 10 jag of cell nuclear extract was incubated at room temperature for 30 min and loaded onto a 5% nondenaturing polyacrylamide gel for electrophoresis. The gel was run in 0.5×TBE buffer at 120 V, transferred to a double layer of Whatman paper and dried on a gel dryer for 45-60 mM at 76° C. The dried gel was used to expose an autoradiography film (Denville) at −80° C. and the NF-κB bound ^32P-labeled DNA was detected, and the band intensity was analyzed by Image J.
(In EMSA bound probe runs differently from free probe, usually more slowly.)

For the compound `CC(C)c1cc2c(c(O)c1O)[C@@]13CCCC(C)(C)[C@@H]1C[C@@H]2OC3=O` [carnosol], the cell survival rate in the series on MEF cells (12 h post UVB, UVB alone about 88%) turned out to be 97%; in the series with MEF cells (24 h post UVB, UVB alone 80%), 90%; in the series with MEF cells (36 h post UVB, UVB alone 62%), 70%; in the series on MEF cells (48 h post UVB, UVB alone 43%), 58%. Also, in the series with normal skin cells, the “protection of the UVB-irradiated cells (proliferation)” value is reported as “partial protection”. In addition, the “cell proliferation / cell growth in normal skin cells” value with normal skin cells (without UVB protection context) is “some effect in inhibiting cell proliferation”. Moreover, in the series on NF-κB (2 h post UVB, UVB alone induced by 20%), the “NF-κB activity (DNA binding, EMSA)” value was “no statistically significant change”. Besides, the “NF-κB activity induction (EMSA)” value with NF-κB (4 h post UVB) came to 2.2 fold; in the series with NF-κB (6 h post UVB), 1.5 fold.

Values taken from US20190388389A1, “METHODS AND COMPOSITIONS OF CARNOSOL FOR INHIBITING UVB-INDUCED SKIN DAMAGE” (Ohio University, priority 2017, published 2019).
